Tests used:
Assay type in all cases: in vivo, human
[1] = Example 16: liraglutide and One-Meal-A-Day; settings: One-Meal-A-Day; weeks 1-4: 0.75/1.5/1.5/2.25 mg; without exercise or caloric restriction
Excerpt: Patients are subject to a combination HMT/HNT treatment protocol as described in Table 20 below. […] [table]

[2] = Example 18: liraglutide and 18-hour fasting; settings: weeks 1-4: 0.75/1.5/1.5/2.25 mg, without exercise or caloric restriction
Excerpt: Patients are subject to a combination HMT/HNT treatment protocol as described in Table 22 below. […] [table]

[3] = Example 17: liraglutide and 15-hour fasting; settings: weeks 1-4: 0.75/1.5/2.25/2.25 mg, without exercise or caloric restriction
Excerpt: Patients are subject to a combination HMT/HNT treatment protocol as described in Table 21 below. […] [table]

[4] = Example 14: dulaglutide and 15-hour fasting; settings: weeks 1-4: 0.2/0.375/0.375/0.6 mg, without exercise or caloric restriction
Excerpt: Patients are subject to a combination HMT/HNT treatment protocol as described in Table 18 below. […] [table]

[5] = Example 15: dulaglutide and 18-hour fasting; settings: weeks 1-4: 0.2/0.375/0.375/0.6 mg, without exercise or caloric restriction
Excerpt: Patients are subject to a combination HMT/HNT treatment protocol as described in Table 19 below. […] [table]

[6] = Example 13: dulaglutide and One-Meal-A-Day; settings: One-Meal-A-Day; weeks 1-4: 0.2/0.375/0.375/0.6 mg; without exercise or caloric restriction
Excerpt: Patients are subject to a combination HMT/HNT treatment protocol as described in Table 17 below. […] [table]

[7] = Example 1: clinical study combining semaglutide (injection) and fasting (HMT/HNT), Patient 1
Excerpt: Patient 1 was subject to a combination HMT/HNT treatment protocol as described below.

[8] = Example 2: semaglutide (injection) and 15-hour fasting; settings: weeks 1-4: .25/.50/.50/1 mg, without exercise or caloric restriction
Excerpt: Patients are subject to a combination HMT/HNT treatment protocol as described in Table 6 below. […] [table]

[9] = Example 6: semaglutide (oral) and 18-hour fasting; settings: weeks 1-4: 1/2/3.5/5 mg, without exercise or caloric restriction
Excerpt: Patients are subject to a combination HMT/HNT treatment protocol as described in Table 10 below. […] [table]

[10] = Example 3: semaglutide (oral) and 18-hour fasting; settings: weeks 1-4: .25/.50/.50/1 mg, without exercise or caloric restriction
Excerpt: Patients are subject to a combination HMT/HNT treatment protocol as described in Table 7 below. […] [table]

[11] = Example 5: semaglutide (oral) and 15-hour fasting; settings: weeks 1-4: 1/2/3.5/5 mg, without exercise or caloric restriction
Excerpt: Patients are subject to a combination HMT/HNT treatment protocol as described in Table 9 below. […] [table]

[12] = Example 4: semaglutide (oral) and One-Meal-A-Day; settings: One-Meal-A-Day; weeks 1-4: 1/2/3.5/5 mg; without exercise or caloric restriction
Excerpt: Patients are subject to a combination HMT/HNT treatment protocol as described in Table 8 below. […] [table]

For `CCCCCCCCCCCCCCCC(=O)N[C@@H](CCC(=O)NCCCC[C@H](NC(=O)[C@H](C)NC(=O)[C@H](C)NC(=O)[C@H](CCC(N)=O)NC(=O)CNC(=O)[C@H](CCC(=O)O)NC(=O)[C@H](CC(C)C)NC(=O)[C@H](Cc1ccc(O)cc1)NC(=O)[C@H](CO)NC(=O)[C@H](CO)NC(=O)[C@@H](NC(=O)[C@H](CC(=O)O)NC(=O)[C@H](CO)NC(=O)[C@@H](NC(=O)[C@H](Cc1ccccc1)NC(=O)[C@@H](NC(=O)CNC(=O)[C@H](CCC(=O)O)NC(=O)[C@H](C)NC(=O)[C@@H](N)Cc1cnc[nH]1)[C@@H](C)O)[C@@H](C)O)C(C)C)C(=O)N[C@@H](CCC(=O)O)C(=O)N[C@@H](Cc1ccccc1)C(=O)N[C@H](C(=O)N[C@@H](C)C(=O)N[C@@H](Cc1c[nH]c2ccccc12)C(=O)N[C@@H](CC(C)C)C(=O)N[C@H](C(=O)N[C@@H](CCCNC(=N)N)C(=O)NCC(=O)N[C@@H](CCCNC(=N)N)C(=O)NCC(=O)O)C(C)C)[C@@H](C)CC)C(=O)O` [Liraglutide], the “Therapeutic effects (e.g. weight loss)” value [1] was “Desirable therapeutics effects (e.g. weigh loss) are achieved”, the “Therapeutic effects (e.g. weight loss)” value [2] was “Desirable therapeutics effects (e.g. weigh loss) are achieved” and the “Therapeutic effects (e.g. weight loss)” value [3] was “Desirable therapeutics effects (e.g. weigh loss) are achieved”.
With Dulaglutide the “Therapeutic effects (e.g. weight loss)” value [4] was “Desirable therapeutics effects (e.g. weigh loss) are achieved”, the “Therapeutic effects (e.g. weight loss)” value [5] was “Desirable therapeutics effects (e.g. weigh loss) are achieved” and the “Therapeutic effects (e.g. weight loss)” value [6] was “Desirable therapeutics effects (e.g. weigh loss) are achieved”.
In the case of Semaglutide, the Weight lost ([7]; in 30 days, combination HMT/HNT) was 30 pounds, the Bodyweight reduction ([7]; starting weight 282 lbs, 30 days, weeks 1-4: .25/.50/.50/1 mg, One-Meal-A-Day) was −30 lbs and the “Therapeutic effects (e.g. weight loss)” value [8] was “Desirable therapeutics effects (e.g. weigh loss) are achieved”.
For Semaglutide [Semaglutide (oral)], the “Therapeutic effects (e.g. weight loss)” value [9] was “Desirable therapeutics effects (e.g. weigh loss) are achieved”, the “Therapeutic effects (e.g. weight loss)” value [10] was “Desirable therapeutics effects (e.g. weigh loss) are achieved” and the “Therapeutic effects (e.g. weight loss)” value [11] was “Desirable therapeutics effects (e.g. weigh loss) are achieved”. The “Therapeutic effects (e.g. weight loss)” value [12] was “Desirable therapeutics effects (e.g. weigh loss) are achieved”.

From patent US20230374096A1, “OBESITY TREATMENT AND PREVENTION METHODS” (Vault Bioventures, Inc., priority 2022, published 2023)
